This note sets out measurements from ChEMBL document CHEMBL1240514, “Design and synthesis of potent "sulfur-free" transition state analogue inhibitors of 5'-methylthioadenosine nucleosidase and 5'-methylthioadenosine phosphorylase” (J Med Chem, 2010).

Activity calls are given as the source filed them. The calls are words filed in the database; no cut-off is given here.

The target of one assay is T1, S-methyl-5'-thioadenosine phosphorylase (Homo sapiens, UniProt Q13126).
T1 sequence (Q13126 whole entry): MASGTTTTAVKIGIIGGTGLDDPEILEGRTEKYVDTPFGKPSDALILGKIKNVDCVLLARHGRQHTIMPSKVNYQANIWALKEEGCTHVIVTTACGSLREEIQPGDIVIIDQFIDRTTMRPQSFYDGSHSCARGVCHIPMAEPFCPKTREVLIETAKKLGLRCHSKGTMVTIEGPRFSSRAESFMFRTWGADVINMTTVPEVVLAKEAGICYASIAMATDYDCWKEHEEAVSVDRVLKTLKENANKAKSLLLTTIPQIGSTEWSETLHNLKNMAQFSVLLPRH
Put plainly: Inhibition of His-tagged human MTAP.
For the compound `CC[C@H]1CN(Cc2c[nH]c3c(N)ncnc23)C[C@@H]1O`, the Ki was 0.7 nM.
Same read-out and setting: for `C=CC[C@H]1CN(Cc2c[nH]c3c(N)ncnc23)C[C@@H]1O` (racemic) the value was 3 nM; for `Nc1ncnc2c(CN3C[C@H](C4CC4)[C@@H](O)C3)c[nH]c12` (racemic), 2.1 nM.
Same read-out and setting: for `C=C[C@H]1CN(Cc2c[nH]c3c(N)ncnc23)C[C@@H]1O` (racemic) the value was 3.2 nM.
Still for that read-out and setting: in the case of `C#C[C@H]1CN(Cc2c[nH]c3c(N)ncnc23)C[C@@H]1O` (racemic) it was 31 nM; in that of `CC[C@H]1CN(Cc2c[nH]c3c(N)ncnc23)C[C@H]1O` (racemic), 34 nM.
Compound `CC(C)C[C@H]1CN(Cc2c[nH]c3c(N)ncnc23)C[C@@H]1O` (racemic) came in with a Ki of 1.7 nM.
For the compound `Nc1ncnc2c(CN3C[C@H](C4CCCC4)[C@@H](O)C3)c[nH]c12` (racemic), the affinity, expressed as Ki, was 2.6 nM.
Still for that read-out and setting: in the case of `Nc1ncnc2c(CN3C[C@H](CC4CCCCC4)[C@@H](O)C3)c[nH]c12` (racemic) it was 14 nM; in that of `Nc1ncnc2c(CN3C[C@H](c4ccccc4)[C@@H](O)C3)c[nH]c12` (racemic), 8 nM.
The same measure, in the same setting: in the case of `Nc1ncnc2c(CN3C[C@H](O)[C@@H](n4ccnn4)C3)c[nH]c12` (racemic) it was 59 nM; in that of `Nc1ncnc2c(CN3C[C@H](CCCSCc4ccccc4)[C@@H](O)C3)c[nH]c12` (racemic), 71 nM.

The target of the next assay is T2, S-methyl-5'-thioadenosine phosphorylase (Homo sapiens) (UniProt Q13126).
T2 sequence (whole entry): T1 sequence (Q13126 whole entry)
Briefly: Inhibition of His-tagged human MTAP at 2.5 uM.
For the compound `Nc1ncnc2c(CN3C[C@H](c4cn(Cc5ccccc5)nn4)[C@@H](O)C3)c[nH]c12` (racemic), the inhibition entry was “inactive”.
